Experimental data from patent US6693123B2 (University of Pittsburgh, priority 1995, dated 2004).
Where a name gives a salt, the structure may show the parent alone. Read-outs that look alike come from different tables or passages of the source.

How the values were obtained:
[1] = biological target: T1, Rat brain protein farnesyltransferase (Rattus norvegicus, UniProt Q02293+Q04631); experiment: In vitro inhibition of protein farnesyltransferase, Amersham scintillation proximity assay with biotin-K Ras B fragment; format: biochemical; settings: for inhibition at 1 µM: read-out: % inhibition at 1 × 10^−6 M; for inhibition at 10 µM: compound at 1 × 10^−5 M (Table 1)
T1 construct: The enzyme is purified according to Reiss, Y., et al., Cell, 62: 81-88 (1990), utilizing steps one through three; from tissue; host or cells: rat brain

[2] = tested on: geranylgeranyltransferase I; experiment: Inhibition of geranylgeranyltransferase I (glass fiber filter binding assay, H-Ras-CVLL, 3H-GGPP); format: biochemical, bovine; settings: for Activity: % inhibition at 1 × 10^−5 M: compound at 1 × 10^−5 M (Table 5); for Activity: % inhibition at 1 × 10^−6 M: compound at 1 × 10^−6 M (Table 5); for Activity: % inhibition at 1 × 10^−7 M: compound at 1 × 10^−7 M (Table 5)
Source text: The ability of the compounds of the invention to inhibit protein farnesyltransferase or protein geranylgeranyltransferase can be measured according to the method of Moores, et al., J. Biol. Chem. 266: 14603 (1991) or the method of Vogt, et al., J. Biol. Chem. 270:660-664 (1995). In addition, procedures for determination of the inhibition of farnesylation of the oncogene protein Ras are described by Goldstein, et al., J. Biol. Chem., 266:15575-15578 (1991) and by Singh in U.S. Pat. No. 5,245,061.
Additional methods for the measurement of in vitro inhibition of protein prenylation (i.e., inhibition of farnesyltransferase or geranylgeranyltransferase) are described below.
Assays are performed using the glass fiber filter binding assay procedure with either rabbit reticulocyte lysate or Frase or GGTase I fractions isolated from bovine brains using a combination of hydrophobic and DEAE column chromatography procedures. Protein substrates are purchased from Panvera Corporation (H-ras for FTase, H-ras-CVLL for GGTase I). Tritium labeled prenyl lipid substrates (FPP or GGPP) are obtained from Amersham Life Science.
^3H-geranylgeranyldiphosphate (final concentration 0.5 μM), H-Ras-CVLL (final concentration 5.0 μM) and the test compound (various final concentrations from a stock solution in 1:1 DMSO/water; final concentration DMSO <2%) were mixed in buffer (50 mM Tris-HCl (pH 7.2), 30 mM MgCl2, 20 mM KCl, 10 μM ZnCl2, 5 mM DTT, 0.01% Triton X-100) to give a final volume of 50 μL. The mixture was brought to 37° C., treated with enzyme, and incubated for 30 minutes. 1 mL of 1 M HCl/ethanol was added to stop the reaction, and the mixture was allowed to stand for 15 minutes at room temperature then diluted with 2 mL of ethanol. The reaction mixture was filtered through a 2.5 cm glass microfiber filter from Whatman and washed with four 2 mL portions of ethanol. The glass filter was transferred to a scintillation vial, and 5 mL scintillation fluid was added. The radioisotope retained on the glass fiber filter was counted to reflect the activity of the enzymes. The IC50 value was calculated by measuring the activity of the enzyme over a suitable range of inhibitor concentrations.

[3] = Inhibition of farnesyltransferase, compound at 1 × 10^−6 M (Table 2)
[4] = Inhibition of farnesyltransferase

Q: What does the source list for `CSCC[C@H](NC(=O)c1ccc(COc2cccnc2)cc1Oc1ccccc1)C(=O)O` [Example 157, [4-(3-Pyridyloxymethylene)-2-phenoxybenzoyl]methionine]?
A: inhibition at 1 µM [1, 3]: 92%; melting point: 195 °C

Q: For `O=C(N[C@@H](CC1CCCCC1)C(=O)O)c1ccc(NCc2c[nH]cn2)cc1-c1cccc2ccccc12` [Example 974, N-[4-(Imidazol-4-ylmethylamino)-2-naphth-1-ylbenzoyl]cyclohexyalanine], which “Activity: % inhibition at 1 × 10^−5 M” value [2] is on record?
A: Its value is >50% inhibition at 1 × 10^−5 M.

Q: What about the inhibition at 10 µM [1, 4] of the same compound?
A: The inhibition at 10 µM was over 50%.

Q: For `CC(C)C[C@H](NC(=O)c1ccc(NCc2c[nH]cn2)cc1-c1ccccc1)C(=O)O` [Example 967, N-[4-(Imidazol-4-ylmethylamino)-2-phenylbenzoyl]leucine], which “Activity: % inhibition at 1 × 10^−6 M” value [2] is on record?
A: Its value is >50% inhibition at 1 × 10^−6 M.

Q: With `CC(C)C[C@H](NC(=O)c1ccc(NCc2ncc[nH]2)cc1-c1cccc2ccccc12)C(=O)O` [Example 966, N-[4-(Imidazol-2-ylmethylamino)-2-naphth-1-ylbenzoyl]leucine] as the compound, how does the “Activity: % inhibition at 1 × 10^−6 M” value [2] read?
A: The value was >50% inhibition at 1 × 10^−6 M.

Q: With `CC(C)C[C@H](NC(=O)c1ccc(CNCc2c[nH]cn2)cc1-c1cccc2ccccc12)C(=O)O` [Example 955, N-[4-(Imidazol-4-ylmethylaminomethyl)-2-naphth-1-ylbenzoyl]leucine] as the compound, how does the “Activity: % inhibition at 1 × 10^−7 M” value [2] read?
A: Its value is >50% inhibition at 1 × 10^−7 M.

Q: What about the inhibition at 10 µM [1, 4] of the same compound?
A: The inhibition at 10 µM was 50%.

Q: For `CC(C)C[C@H](NC(=O)c1ccc(NCc2ncc[nH]2)cc1-c1ccccc1)C(=O)O` [Example 953, N-[4-(Imidazol-2-ylmethylamino)-2-phenylbenzoyl]leucine], which “Activity: % inhibition at 1 × 10^−6 M” value [2] is on record?
A: Its value is >50% inhibition at 1 × 10^−6 M.

Q: And the melting point?
A: The melting point was 156 to 160 °C.

Q: For `CC(C)C[C@H](NC(=O)c1ccc(NCc2ccncc2)cc1-c1cccc2ccccc12)C(=O)O` [Example 969, N-[4-(Pyrid-4-ylmethylamino)-2-naphth-1-ylbenzoyl]leucine], which “Activity: % inhibition at 1 × 10^−5 M” value [2] is on record?
A: The value was >50% inhibition at 1 × 10^−5 M.

Q: What does the source list for `Cc1ccccc1-c1cc(NCc2c[nH]cn2)ccc1C(=O)N[C@@H](CC(C)C)C(=O)O` [Example 962, N-[4-(Imidazol-4-ylmethylamino)-2-(2-methylphenyl)benzoyl]leucine Hydrochloride]?
A: Activity: % inhibition at 1 × 10^−7 M [2]: >50% inhibition at 1 × 10^−7 M; inhibition at 1 µM [1, 3]: > 50%

Q: Which “Activity: % inhibition at 1 × 10^−6 M” value [2] does the source give for `CC(C)C[C@H](NC(=O)c1ccc(OCCn2ccnc2)cc1-c1ccccc1)C(=O)O` [Example 964, N-[4-(2-Imidazol-1-ylethoxy)-2-phenylbenzoyl]leucine] here?
A: The value was >50% inhibition at 1 × 10^−6 M.

Q: And the inhibition at 1 µM [1, 3]?
A: The inhibition at 1 µM was over 50%.

Q: Which inhibition at 1 µM [1] does the source give for `CSCC[C@H](NC(=O)c1ccc(C(O[Si](C)(C)C(C)(C)C)c2ccncc2)cc1-c1ccccc1)C(=O)O` (stereo partly drawn) [Example 297, [4-(4-Pyridyl-t-butyldimethylsilyloxymethyl)-2-phenylbenzoyl]methionine Sodium Salt] here?
A: Its inhibition at 1 µM is 65%.

Q: What does the source list for `Cc1cc(C)cc(-c2cc(NCc3cnc[nH]3)ccc2C(=O)N[C@@H](CC(C)C)C(=O)O)c1` [Example 399]?
A: Activity: % inhibition at 1 × 10^−6 M [2]: >50% inhibition at 1 × 10^−6 M; inhibition at 1 µM [1, 3]: > 50%

Q: With `CSCC[C@H](NC(=O)c1ccc(CN(CCCn2ccnc2)Cc2cc(F)cc(F)c2)cc1-c1ccccc1C)C(=O)O` [Example 1298, N-[4-N-(N-(3-(1-Imidazole)-propyl)-N-(3,5-difluorobenzyl)aminomethyl)-2-(2-methylphenyl)benzoyl]methionine Lithium Salt] as the compound, how does the inhibition at 0.01 µM ([1]; read-out: % inhibition at 0.01 μM) read?
A: The inhibition at 0.01 µM was 97%.

Q: For `COC(=O)[C@H](CCSC)NC(=O)c1ccc(COc2cccnc2)cc1-c1ccccc1C` [Example 307, [4-(3-Pyridyloxymethyl)-2-(2-methylphenyl)benzoyl]methionine Methyl Ester], which inhibition at 1 µM [1, 3] is on record?
A: The inhibition at 1 µM was 82%.

Q: Which inhibition at 0.1 µM ([1]; Inhibition of farnesyltransferase, compound at 1 × 10^−7 M (Table 3), read-out: % inhibition at 1 × 10^−7 M) does the source give for `CCCCCc1cc(C(=O)N[C@@H](CCSC)C(=O)O)c(-c2ccccc2C)cc1COc1cccnc1` [Example 919, N-[5-Pentyl-4-(pyrid-3-yloxymethyl)-2-(2-methylphenyl)benzoyl]methionine] here?
A: The inhibition at 0.1 µM was 91%.
